Source: PMC7770833, “Design, Synthesis, and Biological Evaluation of a Series of Oxazolone Carboxamides as a Novel Class of Acid Ceramidase Inhibitors” (Journal of Medicinal Chemistry, 2020)

Legend:
[1] = system: human neuroblastoma SH-SY5Y cells; assay: Sphingolipid levels in SH-SY5Y cells (LC/MS); type: cell-based
Protocol: SH-SY5Y cells were purchased from Sigma Aldrich (Italy) and cultured in DMEM containing 10% FBS at 37 °C and 5% CO2. Drugs were dissolved in DMSO (10 mM) and diluted in cell culture medium with reduced serum (1%) for cell treatments.
Lipid extraction and SL measurements were performed as previously described.[59],[61],[75] Lipids were extracted with a CHCl3/MeOH mixture (2:1, 3 mL) spike with internal standards. The organic phase was collected, dried under N2, and dissolved in CHCl3/MeOH (1:3) for LC/MS analyses. Ceramides and sphingosine were analyzed by LC/MS/MS, using a Waters Acquity UPLC coupled to a Waters Xevo triple quadrupole mass spectrometer (TQMS) and interfaced with an ESI ion source. Separation was performed on a Waters Acquity BEH C18 1.7 μm column (2.1 × 50 mm) at 60 °C. A linear gradient of 0.1% HCOOH in CH3CN/i-PrOH (20:80) as solvent B in 0.1% HCOOH in CH3CN/H2O (20:80) as solvent A and was applied at a flow rate of 0.4 mL/min. The detection of SLs was performed in positive ion mode. Capillary voltage was 3.5 kV and cone voltage was 25 V. The source temperature and desolvation temperatures were set at 120 and 600 °C, respectively. Desolvation gas and cone gas (N2) flows were 800 and 20 L/h, respectively. Ceramides were identified by comparison of their LC retention times and MS/MS fragmentation patterns with those of authentic standards (Avanti Polar Lipids). Multiple reaction monitoring (MRM) ion chromatograms were used to quantify dihydroceramide (Cer(d18:0/16:0), Rt = 4.6 min, m/z: 540.5 > 522.5), palmitoyl ceramide (Cer(d18:1/16:0), Rt = 4.5 min, m/z: 520.3 > 264.2) sphingosine (So(d18:1), Rt = 2.6 min, m/z: 300.2 > 282.2), sphingomyelin (SM(d18:1/16:0), Rt = 4.2 min, m/z: 703.2 > 184.1) and hexosylceramide (HexCer (d18:1/16:0), 4.3 min, m/z: 682.2 > 264.2). Detection and analysis were controlled by Waters MassLynx software version 4.1. Calibration curves were prepared for every experiment.

[2] = In vivo PK study in C57BL/6 mice; design: species or system mouse
Protocol: C57 B6/J male mice, 8 weeks old (22–24 g), were used (Charles River, Calco). All procedures were performed in accordance with the Ethical Guidelines of European Communities Council (Directive 2010/63/EU of 22 September 2010) and accepted by the Italian Ministry of Health. All efforts were made to minimize animal suffering and to use the minimal number of animals required to produce reliable results, according to the “3Rs rules”. Animals were group-housed in ventilated cages and had free access to food and water. They were maintained under a 12 h light/dark cycle (lights on at 8:00 am) at a controlled temperature (21 ± 1 °C) and relative humidity (55 ± 10%). 32b was administrated intravenously (i.v.) at 3 mg/kg/5 mL, vehicle: PEG400/Tween 80/saline solution (10/10/80% in volume, respectively) via tail vein injection and via oral administration (p.o.) at 10 mg/kg/10 mL, vehicle: PEG400/Tween 80/saline solution (10/10/80% in volume, respectively) by an oral gavage. Sample collection. Samples were collected at 5 min, 15 min, 30 min, 1 h, 2 h, and 4 h (i.v. administration) and at 15 min, 30 min, 1 h, 2 h, 4 h, and 6 h (p.o. administration). N = 3 animals per dose time point were treated. Plasma samples were centrifuged at 21,100g for 15 min at 4 °C. An aliquot of each sample was extracted (1:3) with cold CH3CN containing 200 nM of an appropriate internal standard being a close analogue of compound 32b. A calibration curve was prepared in blank mouse plasma over a 1 nM–10 μM range. Three quality controls were prepared by spiking compound 32b in the blank mouse plasma to 20, 200, and 2000 nM as final concentrations. The calibrators and quality controls were extracted (1:3) with the same extraction solution as the plasma samples. The plasma samples, the calibrators, and quality controls were centrifuged at 3270 × g for 15 min at 4 °C. The supernatants were further diluted (1:1) with H2O and analyzed by LC/MS–MS on a Waters Acquity UPLC/MS TQD system consisting of TQD) MS equipped with an ESI interface and a PDA detector. ESI was applied in positive mode. Compound-dependent parameters such as MRM transitions and collision energy were developed for compound 32b and the internal standard. The analyses were run on an Acquity UPLC BEH C18 (50 × 2.1 mm ID, particle size 1.7 μm) with a VanGuard BEH C18 pre-column (5 × 2.1 mm ID, particle size 1.7 μm) at 40 °C. For plasma samples, the mobile phase was H2O + 0.1% HCOOH (A) and CH3CN + 0.1% HCOOH (B) at a flow rate = 0.5 mL/min. A linear gradient was applied starting at 20% B with an initial hold for 0.2 min, then 20–100% B in 2 min. All samples (plasma samples, calibrators, and quality controls) were quantified by a MRM peak area response factor in order to determine the levels of compound 32b in the plasma. The concentrations versus time were plotted and the profiles were fitted using PK Solutions Excel Application (Summit Research Service, USA) in order to determine the PK parameters.

In the case of `CCCCCNC(=O)n1cc(-c2ccc(F)cc2C2CCN(C)CC2)oc1=O` [Compound 32b, 5-[4-Fluoro-2-(1-methyl-4-piperidyl)phenyl]-2-oxo-N-pentyl-oxazole-3-carboxamide], the “Cer (d18:0/16:0) level” value ([1]; 10 μM, time course up to 6 h) was “increased”, the “Cer (d18:1/16:0) level” value ([1]; 10 μM, time course up to 6 h) was “increased” and the “HexCer (d18:1/16:0) level” value ([1]; 10 μM, time course up to 6 h) was “No major variations”. For the same compound, the “SM (d18:1/16:0) level” value ([1]; 10 μM, time course up to 6 h) was “No major variations”, the So levels ([1]; 10 μM, time course up to 6 h) was “decreased” and the “Cer (d18:0/16:0) level” value ([1]; 3 h incubation, 1-10 μM) was “accumulation”. For the same compound, the “Cer (d18:1/16:0) level” value ([1]; 3 h incubation, 1-10 μM) was “accumulation”, the “HexCer (d18:1/16:0) level” value ([1]; 3 h incubation, 1-10 μM) was “no major variations” and the “SM (d18:1/16:0) level” value ([1]; 3 h incubation, 1-10 μM) was “no major variations”. The So levels ([1]; 3 h incubation, 1-10 μM) was “decrease”, the “Vdss (mL/kg)” value ([2]; 10 mg/kg, p.o.) was 32 877 mL/kg and the AUC at 4 h ([2]; male, mouse, iv, 3 mg/kg, plasma) was 533 ng·h/mL. It also gave a clearance at 4 h ([2]; male, mouse, plasma, iv, 3 mg/kg) of 72 mL/min/kg, a Vd at 4 h ([2]; male, mouse, plasma, iv, 3 mg/kg, i.v., read-out: Vdss (converted)) of 12.4 L/kg and an AUC at 4 h ([2]; male, mouse, po, 10 mg/kg, plasma) of 709 ng·h/mL.
